# Laboratory results from US12017975B2, “Myc-Max inhibitor compound therapeutics for cancer treatment, methods and uses associated therewith” (THE UNIVERSITY OF BRITISH COLUMBIA, priority 2018, dated 2024).
# Entries after “also recorded” stand apart in the source; their conditions may differ. Where two headings read alike, the source gives them in different places.
# Tests used:
# [1] = system: Myc-Max transcriptional activity; test: Cignal c-Myc luciferase reporter assay in LNCaP cells; format: cell-based; conditions: Homo sapiens
# Experimental: (§1) Cell transfection was performed using TransIT-2020™ transfection reagents according to the manufacturer's instructions (Mirus™). LNCaP cells were plated at 10000 cells per well and treated for 1 day with the indicated concentration of compound. Myc reporter activity was measured using the Cignal Myc Reporter Assay Kit™ from Qiagen™ (#336841) according to the manufacturer's instructions. For the UBE2C reporter assay, 22rv1 cells were plated at 10000 cells per well in 96-well plates in RPMI media supplemented with 5% charcoal-stripped serum (CSS) and treated for 1 day with 1 μM, 10 μM and 25 μM of compound.
# Compounds were subjected to experimental evaluation using the commercially available transcriptional assay Cignal c-Myc luciferase reporter assay in LNCaP cells. […] A transiently transfected Myc-driven luciferase reporter allowed the monitoring of Myc-regulated signal in LNCaP upon treatment with the in silico identified compounds.
# [2] = system: LNCaP cells; test: PARP cleavage (apoptosis) by Western blot in LNCaP cells; format: cell-based; conditions: for PARP effect: TABLE 2, LNCaP cells; for PARP cleavage / apoptosis: LNCaP cells, Western blot
# Experimental: After 48 hours of treatment with Myc compounds, LNCaP cells were lysed, and protein sample preparation followed by Western blotting were performed. Blots were incubated with primary antibodies against c-Myc, PARP (Sigma™ 084M4766V), PARP cleaved-Asp214 (Sigma™ SAB4500487) and β-Actin (Sigma™ A2066) overnight at 4° C., followed by appropriate peroxidase-conjugated secondary antibodies. β-actin served as an internal control. Visualization of the immunocomplexes was done by an enhanced chemiluminescence detection system (Millipore™) followed by exposure to X-ray films.
# Apoptosis. Myc inhibition induces cell death by cell cycle arrest and apoptosis. Cleavage of PARP-1 by caspases is considered a hallmark of apoptosis and so we measured the ability of compounds to induce PARP cleavage after treatment.
# [3] = system: Myc-Max/UBE2C downstream pathway; test: UBE2C promoter luciferase reporter assay in 22rv1 cells; format: cell-based; conditions: for inhibition at 25 µM: Homo sapiens
# Experimental: as §1
# Myc inhibition was recently reported to reduce levels of the constitutively active androgen receptor splice variant AR-V7 in 22rv1 cells. […] The dose-dependent reduction of luciferase levels by the identified hits indicates a Myc-related reduction of AR-V7 level in the cells (see TABLE 1). […] The AR-V7 reduction with the hits was confirmed by Western blot (FIG. 2B).
# [4] = system: LNCaP cells; test: LNCaP cell viability (PrestoBlue); format: cell-based; conditions: Homo sapiens; for IC50: 96 hours, 0-25 μM, read-out: IC50 LNCaP cell proliferation / viability
# Experimental: (§2) LNCaP were plated at 5000 cells per well in RPMI 1640 containing 5% CSS in a 96-well plate, treated with test compounds (0-25 μM) for 96 hours. Cell density was measured using the PrestoBlue™ assay according to the manufacturer's protocol. The percentage of cell survival was normalized to the cell density of control wells treated by vehicle. Viability of Myc-negative […] cells was done similarly but in DMEM supplemented with 5% CSS.
# (§3) The effect of hit compounds on Myc-driven cell proliferation was evaluated by measuring the cell viability of LNCaP cells after treatment with increasing concentrations of compounds.
# [5] = Cell viability of Myc negative (c-Myc knockout) HO15.19 cells; format: cell-based; conditions: rat, HO15.19 cells (c-Myc knockout, Myc-negative); 25 μM; read-out: % inhibition of Myc negative HO15.19 cells (cytotoxicity)
# Experimental: as §2, §3
# [6] = target: T1, Myc-Max complex (Homo sapiens, UniProt P01106+P61244); test: Biolayer interferometry of Myc-Max binding to biotinylated E-box DNA; conditions: for Myc-Max interaction with immobilized E-box DNA: 500 μM compound (FIG. 3C); for BLI binding: TABLE 2
# T1 construct: GST tagged Myc (residues 368-454); Histidine tagged Max (residues 23-102); made in house; host or cells: E. coli BL21-DE3
# Experimental: Histidine tagged Max (residues 23-102) and GST tagged Myc (residues 368-454) were overexpressed in E. coli BL21-DE3 cells. Cells were co-lyzed in lysis buffer (20 mM Tris pH 8, 500 mM NaCl, 5% glycerol, 10 mM imidazole, 8 mM BME, 2.1 mM PMSF). After sonication and centrifugation, the complex was first purified by using a Ni-NTA affinity resin. After overnight dialysis to remove the imidazole, the protein sample was applied to a size exclusion chromatography equilibrated with (20 mM Tris pH 8, 150 mM NaCl, 5% glycerol, 0.2 mM TCEP). Fractions containing equal amount of Myc and Max on SDS PAGE were collected and used for the binding assay. The presence of both proteins was validated by Western blot using a specific antibody of each protein (Max (h2) Sc-8011 and c-Myc (9E10) Sc-40, Santa Cruz Biotechnology™)
# The direct interaction between biotinylated E-box oligo ([…]) immobilized on a streptavidin biosensor and a purified Myc-Max complex (0.05 mg/ml) was quantified by BLI using OctetRED (ForteBio™). The DNA was first bound to the super-streptavidin sensors over 1000 sec at 25° C. The sensors were next moved into wells containing the reaction buffer (20 mM Tris pH 8, 150 mM NaCl, 5% glycerol, 0.2 mM TCEP, 5% dimethylsulfoxide) for measuring the baseline and next into the Myc-Max complex alone or in presence of the tested inhibitors to study the association of the complex to the DNA.
# Direct Binding and disruption of protein-DNA interaction. To study the direct effect of our hit compounds VPC-70063 and VPC-70067 on the interaction between Myc-Max heterodimer and the DNA, we used Bio-Layer Interferometry (BLI, ForteBio™). This technique is a label-free technology allowing the measurement of direct interactions between two partners, one immobilized on a sensor and the other one present in a solution. We applied this technology to study the disruption of the interaction between a biotinylated E-box oligo immobilized on a streptavidin biosensor and a purified Myc-Max complex in presence of our compounds. Therefore, histidine-tagged Max (residues 23-102) and GST tagged Myc (residues 368-454) were overexpressed and co-purified. The fraction containing equal amount of Myc and Max was collected and used for the binding assay (FIG. 3B). The presence of both proteins was validated by Western blot using a specific antibody of each protein. […] Additionally, we tested the ability of our best compound VPC-70063 to disrupt the interaction of MYC/MAX with DNA in a dose dependent manner.
# [7] = target: T2, Myc-Max interaction (Homo sapiens, UniProt P01106); test: Mammalian two-hybrid assay in PC3 cells; format: cell-based; conditions: various concentrations
# T2 construct: expressed in transfected cells; host or cells: PC3 cells
# Experimental: Full lengths Myc and Max were cloned in pBIND and pACT plasmids (CheckMate™, Promega™), respectively. PC3 cells in RPMI 1640 supplemented with 5% FBS were seeded in 96-well plates at 5,000 cells/well. After 24 hours, cells were transfected with 15 ng of pACT-Max, 19.5 ng of pBIND-Myc, and 13.6 ng of the reporter plasmid PG5-luciferase. After 24 hours, cells were treated with various concentrations of the tested inhibitors. Cells were lysed the next day, and the luminescence signal was measured after adding 50 μL of luciferase assay reagent (Promega™). Each measurement was done in 4 replicates with biological replicates of 3. Luciferase levels corresponding to Myc-Max interactions were measured and normalized to a control provided by the commercial kit to discard non-specific effect due to toxicity or direct luciferase inhibition.
# The effect of inhibitors of Myc-Max interaction was studied by using a mammalian two hybrid assay. Full lengths Myc and Max were cloned in pBIND and pACT plasmids (CheckMate™, Promega™), respectively. Luciferase levels corresponding to Myc-Max interactions were measured and normalized to a control provided by the commercial kit to discard non-specific effect due to toxicity or direct luciferase inhibition.
# [8] = system: HO15.19 cells; test: Cell viability of Myc negative (c-Myc knockout) HO15.19 cells; format: cell-based; conditions: for inhibition at 12 µM: read-out: % inhibition Myc K.O cells (12 uM)
# Experimental: as §2, §3
# [9] = LNCaP, 25 μM, TABLE 3, read-out: % Inhibition 25 μM
# [10] = LNCaP, TABLE 2, assay not named, values match Myc-Max transcriptional activity, read-out: IC50
# [11] = LNCaP, 24 h, 25 μM, LNCaP cells, TABLE 1, read-out: Myc-Max transcriptional activity % inhibition (25 μM)
# [12] = LNCaP, 25 μM, TABLE 4, read-out: % Inhibition (25 μM)
# [13] = LNCaP cells, dose response, Cignal c-Myc kit, read-out: IC50 Myc-Max transcriptional activity
# T1 sequence (P01106 368-454): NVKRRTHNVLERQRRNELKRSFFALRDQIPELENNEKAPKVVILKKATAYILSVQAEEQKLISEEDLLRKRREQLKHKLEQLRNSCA
# T1 sequence (P61244 23-102): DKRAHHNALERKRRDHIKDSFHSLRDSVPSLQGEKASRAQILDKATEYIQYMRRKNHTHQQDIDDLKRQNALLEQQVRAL
# T2 sequence (P01106 whole entry): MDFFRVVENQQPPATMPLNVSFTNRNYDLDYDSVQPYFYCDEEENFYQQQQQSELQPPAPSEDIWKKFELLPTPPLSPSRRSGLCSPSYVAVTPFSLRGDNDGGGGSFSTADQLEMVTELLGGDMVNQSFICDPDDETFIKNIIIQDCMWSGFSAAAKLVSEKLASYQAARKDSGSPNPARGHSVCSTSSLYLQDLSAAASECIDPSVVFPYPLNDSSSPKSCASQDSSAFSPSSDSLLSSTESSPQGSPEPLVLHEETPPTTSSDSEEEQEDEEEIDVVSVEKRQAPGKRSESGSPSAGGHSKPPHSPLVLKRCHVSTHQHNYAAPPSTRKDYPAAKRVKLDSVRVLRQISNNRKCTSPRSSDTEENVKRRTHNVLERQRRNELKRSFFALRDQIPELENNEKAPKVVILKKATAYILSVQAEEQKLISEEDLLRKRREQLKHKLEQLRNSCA
SMILES,"inhibition at 25 µM [1, 9] [%]","IC50 [1, 10] [µM]",PARP effect [2],inhibition at 25 µM [3] [%],"inhibition at 25 µM [1, 11] [%]","inhibition at 12 µM ([8]; Rattus norvegicus, HO15.19) [%]",BLI binding [6],other results
S=C(NCc1ccncc1)Nc1cc(Cl)cc(Cl)c1 [VPC-70084],80,20,weak,–,–,–,–,–
"CCc1ccc(/C=C2\SC(=S)NC2=O)cc1 [Compound 10058-F4, [Z,E]-5-[4-ethylbenzylidine]-2-thioxothiazolidin-4-one, reference compound]",–,–,–,70,–,–,–,IC50 [4]: 18.3 µM
"O=[N+]([O-])c1ccc(Nc2ccccc2-c2ccccc2)c2nonc12 [Compound 10074-G5, reference compound]",–,–,–,–,88,–,–,"IC50 [4]: 8.7 µM; inhibition at 96 h, 25 µM [5]: 37%; Myc-Max interaction with immobilized E-box DNA [6]: prevented from interacting with the immobilized DNA; effect on Myc-Max interaction [7]: did not show any effect"
O=C1NC(=S)S/C1=C\c1ccccc1C(F)(F)F [VPC-70067],–,22,good,71,98,3,strong,"inhibition at 25 µM [1, 12]: 98%; IC50 [1, 13]: 22.7 µM; IC50 [4]: 11.1 µM; PARP cleavage / apoptosis [2]: inducing PARP cleavage; Myc-Max interaction with immobilized E-box DNA [6]: prevented from interacting with the immobilized DNA"
O=C(NNc1ccc(C(F)(F)F)cc1[N+](=O)[O-])c1cnccn1 [VPC-70127],–,1,strong,–,–,19,weak,"inhibition at 25 µM ([1]; LNCaP, 25 μM, TABLE 6, read-out: % Inhibition 25 μM): 106%"
CC(C)(C)[C@H]1CCc2sc(C(=O)N3CCC(C(N)=O)CC3)cc2C1 [VPC-70068],73,–,average,58,73,–,–,–
CC(=O)Nc1ccc(Nc2cc(Cl)c(C(F)(F)F)cc2[N+](=O)[O-])cc1 [VPC-70033],81,10,nil,51,81,–,weak,–
O=C(CCc1c[nH]c2ccccc12)Nc1nc2ccccc2[nH]1 [VPC-70223],103,10,–,–,–,40,–,–
CN1C(=O)/C(=C\C=C\c2ccco2)SC1=S [VPC-70064],–,–,–,64,78,–,–,"inhibition at 25 µM [1, 12]: 78%"
CC(C)C[C@H](NC(=O)C(Cc1ccccc1)NC(=O)CNC(=O)[C@H](C)NC(=O)[C@@H](N)Cc1ccc(O)cc1)C(=O)OCc1ccccc1 (stereo partly drawn) [VPC-70413],–,–,weak,–,–,–,weak,"IC50 ([1]; LNCaP): 15 µM; inhibition at 25 µM ([1]; LNCaP, read-out: % Inhibition 25 μM): 114%"
NC(=O)c1ccsc1NC(=O)Nc1cccc(C(F)(F)F)c1 [VPC-70021],95,10,nil,73,95,0,average,"IC50 [1, 13]: 8.5 µM"
S=C(NCc1ccc(Cl)c(Cl)c1)Nc1cccnc1 [VPC-70053],73,11,–,50,73,–,–,–
O=C(NCc1cnn(Cc2ccccc2)c1)[C@@H]1COc2ccccc2O1 [VPC-70215],101,20,weak,–,–,29,–,–
"FC(F)(F)c1cc(NC(=S)NCc2ccccc2)cc(C(F)(F)F)c1 [VPC-70063, 1-benzyl-3-(3,5-bis(trifluoromethyl)phenyl)thiourea]",106,9,strong,94,106,35,strong,"IC50 [1, 13]: 8.9 µM; reduction of UBE2C promotor activity [3]: highest reduction of UBE2C promotor activity; inhibition at 3 µM ([4]; 3 μM, read-out: % of LNCaP cells inhibited): 70%; IC50 [4]: 2.5 µM; inhibition at 96 h, 25 µM [5]: 40%; effect on c-Myc knockout cells ([8]; 3 μM): no significant effect; inhibition at 2.5 µM ([8]; Rattus norvegicus, HO15.19, 2.5 μM (IC50 in LNCaP cells)): ~7%; PARP cleavage / apoptosis [2]: inducing PARP cleavage; also recorded: induces apoptosis; Myc-Max interaction with immobilized E-box DNA [6]: prevented from interacting with the immobilized DNA; effect on Myc-Max/DNA complex dissociation ([6]; concentration below 100 μM): did not see any significant effect; MYC/MAX binding to DNA ([6]; concentration higher than 100 μM): dose response decrease of the MYC/MAX binding to DNA; effect on Myc-Max interaction [7]: dose response inhibition of the interaction between the two proteins"
